We go through 4 compounds from ChEMBL document CHEMBL4340537, “A cross-linking approach to map small molecule-RNA binding sites in cells” (Bioorg Med Chem Lett, 2019).

Series [1] has as its system MDA-MB-231. Briefly: Binding affinity to pri-miR-96 RNA in human MDA-MB-231 cells assessed as increase in FOXO1 protein expression at 50 nM for 24 hrs by RT-qPCR method. The class given is cell-based. A general note: In qPCR the cycle at which signal appears reflects the starting amount.
Series [2] relates to MDA-MB-231. Put plainly: Binding affinity to pri-miR-96 RNA in human MDA-MB-231 cells assessed as increase in RNA abundance at 50 nM for 24 hrs by RT-qPCR relative to control. It is filed as cell-based.
For series [3], the system named is MDA-MB-231. Briefly: Induction of apoptosis in human MDA-MB-231 cells assessed as increase in caspase 3/7 activity up to 500 nM incubated for 48 hrs by caspase glo 3/7 assay. The class given is functional, cell-based.
In a further series the test system is MCF-10A. Put plainly: Induction of apoptosis in human MCF10A cells assessed as increase in caspase 3/7 activity up to 500 nM incubated for 48 hrs by caspase glo 3/7 assay. The class given is cell-based.
Series [4] deals with MDA-MB-231. Put plainly: Binding affinity to pri-miR-96 RNA in human MDA-MB-231 cells assessed as reduction in matured miR-96 levels at 50 nM for 24 hrs by RT-qPCR method. The class given is cell-based.
The nature of series [5]: Binding affinity to 32P-labeled pri-miR-96 RNA (unknown origin) incubated for 4 hrs by streptavidin based liquid scintillation counting dependent pull down assay.
Series [6] concerns microRNA 96. Put plainly: Inhibition of miR-96 RNA in human MDA-MB-231 cells by TargetScan assay. The class given is cell-based.
The nature of series [7]: Binding affinity to pri-miR-96 RNA (unknown origin) at 1000 nM in presence of Targaprimir-96 by in vitro competitive (C-)Chem CLIP assay.
Series [8] concerns microRNA 96. Put plainly: Inhibition of miR-96 RNA in human MDA-MB-231 cells by volcano plot analysis. The class given is cell-based.

Active and inactive are the calls of the source. The rule behind the calls is not given here. Numbered stars: 1 amine (or outer) side, 2 acyl side, 3 side chain; on linkers, the order of the positions; unused ones are H or OH. Square brackets hold non-standard residues; d marks the D form. Peptide text beside a SMILES is read from it. * marks the point of attachment. Biotinyl(3aR,4R,6aS) = O=C1N[C@@H]2[C@@H](CS[C@@H]2CCCCC(=O)*)N1; N(2-Aminoethyl)Gly = O=C(CN(CCN[*:3])[*:1])[*:2]; Chlorambucil = O=C(CCCc1ccc(N(CCCl)CCCl)cc1)*; Gly(N-propargyl) = C#CCNCC(=O)O; NPrGly = CCCNCC(=O)O

As for `CCCN(CC(=O)N(CCC)CC(=O)N(CC(N)=O)Cc1cn(CCCNC(=O)CCCOc2c(C(C)(C)C)cc(-c3nc4cc(N5CCN(C)CC5)ccc4[nH]3)cc2C(C)(C)C)nn1)C(=O)CCCOc1cccc(-c2nc3ccc(-c4nc5ccc(N6CCN(C)CC6)cc5[nH]4)cc3[nH]2)c1`, the result with MDA-MB-231 [1], in the series on MDA-MB-231 [3] and with MDA-MB-231 [4] was Active. Moreover, the fold change (FC) in the series on MDA-MB-231 [2] was 1.5. The Activity entry in the series on MCF-10A is listed as “Non-Toxic”.

For the compound `C#CCN(CC(=O)N(CCNC(=O)CCCC[C@H]1SC[C@H]2NC(=O)N[C@H]21)CC(N)=O)C(=O)CN(CCC)C(=O)CN(CCNC(=O)CCCc1ccc(N(CCCl)CCCl)cc1)C(C)=O` (Ac-[N(2-Aminoethyl)Gly](Chlorambucil)[NPrGly][Gly(N-propargyl)][N(2-Aminoethyl)Gly](Biotinyl(3aR,4R,6aS))-NH2), the result (with MDA-MB-231 [1]; with MDA-MB-231 [3]; in [5]; with MDA-MB-231 [4]) was inactive.

As to `CCCN(CC(=O)N(CC(=O)N(CCNC(=O)CCCC[C@H]1SC[C@H]2NC(=O)N[C@H]21)CC(N)=O)Cc1cn(CCCNC(=O)CCCOc2c(C(C)(C)C)cc(-c3nc4cc(N5CCN(C)CC5)ccc4[nH]3)cc2C(C)(C)C)nn1)C(=O)CN(CCNC(=O)CCCc1ccc(N(CCCl)CCCl)cc1)C(=O)CCCOc1cccc(-c2nc3ccc(-c4nc5ccc(N6CCN(C)CC6)cc5[nH]4)cc3[nH]2)c1`, the outcome (with MDA-MB-231 [1]; in the series on MDA-MB-231 [3]; in series [5]; in the series with MDA-MB-231 [4]) was Active. Moreover, the inhibition result in the series with microRNA 96 [6] and in the series on microRNA 96 [8] was “Active” each time. Moreover, the result in [7] was inactive. In addition, the fold change (FC) with MDA-MB-231 [2] was 1.5.

Turning to `CCCN(CC(=O)N(CC(=O)N(CCNC(=O)CCCC[C@H]1SC[C@H]2NC(=O)N[C@H]21)CC(N)=O)Cc1cn(CCCNC(=O)CCCOc2c(C(C)(C)C)cc(-c3nc4cc(N5CCN(C)CC5)ccc4[nH]3)cc2C(C)(C)C)nn1)C(=O)CN(CCNC(=O)CCCc1ccc(N(CCCl)CCCl)cc1)C(=O)CCCOc1cccc(-c2nc3ccc(-c4nc5cc(N6CCN(C)CC6)ccc5[nH]4)cc3[nH]2)c1`, the Activity result in the series on MCF-10A was “Non-Toxic”.
